Reference: publication PMC8709788, “Mandipropamid as a chemical inducer of proximity for in vivo applications” (Nature Chemical Biology, 2021)

What was measured:
[1] = molecular target: T1, FKBP12 / FRB (rapamycin CIP system) (Homo sapiens, UniProt P42345+P62942); assay: RSICS fluorescence cross-correlation in living cells; type: cell-based; conditions: COS-7 cells, 15 min, ternary complex FKBP12-rapamycin-FRB
T1 construct: gene FKBP1A

[2] = molecular target: T2, PYL / ABI (ABA CIP system) (Arabidopsis thaliana, UniProt Q8VZS8); assay: Gal4BD/VP16 induced-proximity luciferase expression assay; type: cell-based; conditions: COS-7 cells, […] h incubation; induced dimerization of PYL with ABI; text says ABA, legend of Fig. 2e names ABA and also ABA-AM
T2 construct: gene PYL1; TOM20-PYL and eGFP-ABI fusions for imaging; with Protein phosphatase 2C 56
T2 sequence (Q8VZS8 33-209 limits assumed): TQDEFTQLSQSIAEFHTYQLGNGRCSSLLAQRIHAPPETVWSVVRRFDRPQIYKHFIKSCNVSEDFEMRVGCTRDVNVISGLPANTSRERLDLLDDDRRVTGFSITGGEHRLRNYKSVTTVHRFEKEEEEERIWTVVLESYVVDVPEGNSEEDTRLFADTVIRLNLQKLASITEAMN
T2 sequence (P49597 126-423 partner limits assumed): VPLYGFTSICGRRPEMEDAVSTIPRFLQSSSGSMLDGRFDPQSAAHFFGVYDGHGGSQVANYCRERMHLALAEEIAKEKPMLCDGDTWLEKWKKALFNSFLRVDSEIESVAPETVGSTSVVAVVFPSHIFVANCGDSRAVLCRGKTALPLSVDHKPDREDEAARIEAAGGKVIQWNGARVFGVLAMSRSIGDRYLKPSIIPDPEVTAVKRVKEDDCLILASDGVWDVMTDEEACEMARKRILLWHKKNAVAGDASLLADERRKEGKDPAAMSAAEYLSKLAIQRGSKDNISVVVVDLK

T1 sequence (P62942 2-108): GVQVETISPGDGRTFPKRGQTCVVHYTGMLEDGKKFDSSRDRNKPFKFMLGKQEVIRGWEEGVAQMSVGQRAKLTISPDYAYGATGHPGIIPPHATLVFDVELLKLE
T1 sequence (P42345 2021-2113 limits assumed): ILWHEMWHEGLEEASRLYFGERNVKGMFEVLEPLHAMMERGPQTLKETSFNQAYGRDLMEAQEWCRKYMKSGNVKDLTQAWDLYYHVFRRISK

binding efficiency (interacting fraction) at 500 nM [1] [%] | EC50 [2] [µM] | Molecule
71 ± 3 | – | CO[C@H]1C[C@@H]2CC[C@@H](C)[C@@](O)(O2)C(=O)C(=O)N2CCCC[C@H]2C(=O)O[C@H]([C@H](C)C[C@@H]2CC[C@@H](O)[C@H](OC)C2)CC(=O)[C@H](C)/C=C(\C)[C@@H](O)[C@@H](OC)C(=O)[C@H](C)C[C@H](C)/C=C/C=C/C=C/1C [compound 5, rapamycin]
– | 30.8 ± 15.5 | (+)-abscisic acid [compound 3]
